PMC5218480 (PLoS ONE, 2017)

Test system: MV-4-11 cells
Experiment: Gene expression microarray analysis (Affymetrix PrimeView) and GSEA
Assay type: cell-based, human
Parameters: RFU PODN (11730768_x_at) / Fold change /veh PODN (11730768_x_at) / RFU LINC00158 (11744669_a_at) / Fold change /veh LINC00158 (11744669_a_at) / RFU DUSP10 (11751237_a_at) / Fold change /veh DUSP10 (11751237_a_at) / RFU ID3 (11757404_x_at) / Fold change /veh ID3 (11757404_x_at) / RFU PLEKHG5 (11737974_s_at) / Fold change /veh PLEKHG5 (11737974_s_at) / RFU LRRC4B (11730491_at) / Fold change /veh LRRC4B (11730491_at) / RFU GIMAP4 (11747438_a_at) / Fold change /veh GIMAP4 (11747438_a_at) / RFU KRT8 (11758183_x_at) / Fold change /veh KRT8 (11758183_x_at) / RFU CNN1 (11734310_a_at) / Fold change /veh CNN1 (11734310_a_at) / RFU VPS37D (11726825_at) / Fold change /veh VPS37D (11726825_at) / RFU C10orf10 (11716522_x_at) / Fold change /veh C10orf10 (11716522_x_at) / RFU KIR2DL2 /// KIR2DL4 /// KIR2DL5A /// KIR2DL5B /// KIR2DS1 /// KIR2DS2 /// KIR2DS3 /// KIR2DS4 /// KIR3DL3 /// KIR3DL3 /// KIR3DS1 (11738374_at) / Fold change /veh KIR2DL2 /// KIR2DL4 /// KIR2DL5A /// KIR2DL5B /// KIR2DS1 /// KIR2DS2 /// KIR2DS3 /// KIR2DS4 /// KIR3DL3 /// KIR3DL3 /// KIR3DS1 (11738374_at) / RFU C1QL1 (11718748_at) / Fold change /veh C1QL1 (11718748_at) / RFU TMPRSS4 (11747572_a_at) / Fold change /veh TMPRSS4 (11747572_a_at) / RFU HAMP (11756126_x_at) / Fold change /veh HAMP (11756126_x_at) / RFU RNFT2 (11725882_a_at) / Fold change /veh RNFT2 (11725882_a_at) / RFU NR4A2 (11747474_a_at) / Fold change /veh NR4A2 (11747474_a_at) / RFU ABCC12 (11746883_a_at) / Fold change /veh ABCC12 (11746883_a_at) / RFU TMEM136 (11760407_x_at) / Fold change /veh TMEM136 (11760407_x_at) / RFU CLDN22 /// WWC2 (11732394_at) / Fold change /veh CLDN22 /// WWC2 (11732394_at) / RFU HLA-DPB1 (11760878_x_at) / Fold change /veh HLA-DPB1 (11760878_x_at) / RFU SPINT1 (11716480_a_at) / Fold change /veh SPINT1 (11716480_a_at) / RFU GAP43 (11754022_s_at) / Fold change /veh GAP43 (11754022_s_at) / RFU A4GNT (11735810_at) / Fold change /veh A4GNT (11735810_at) / RFU PRB3 (11715151_x_at) / Fold change /veh PRB3 (11715151_x_at) / RFU TUBB4B (11761932_at) / Fold change /veh TUBB4B (11761932_at) / RFU CAPN14 (11732068_a_at) / Fold change /veh CAPN14 (11732068_a_at) / RFU TMCC2 (11721928_a_at) / Fold change /veh TMCC2 (11721928_a_at) / RFU IRGQ (11745062_a_at) / Fold change /veh IRGQ (11745062_a_at) / RFU FAM174B (11720279_a_at) / Fold change /veh FAM174B (11720279_a_at) / RFU TMPRSS4 (11748680_a_at) / Fold change /veh TMPRSS4 (11748680_a_at) / RFU FAM212B (11763350_a_at) / Fold change /veh FAM212B (11763350_a_at) / RFU PLEKHG5 (11743358_a_at) / Fold change /veh PLEKHG5 (11743358_a_at) / RFU ZSCAN30 (11745921_a_at) / Fold change /veh ZSCAN30 (11745921_a_at) / RFU CMKLR1 (11741424_a_at) / Fold change /veh CMKLR1 (11741424_a_at) / RFU LOC101060620 /// MAPK8IP1 (11723275_at) / Fold change /veh LOC101060620 /// MAPK8IP1 (11723275_at) / RFU SPTSSB (11747773_x_at) / Fold change /veh SPTSSB (11747773_x_at) / RFU PRSS12 (11739890_at) / Fold change /veh PRSS12 (11739890_at) / RFU BIN1 (11741810_x_at) / Fold change /veh BIN1 (11741810_x_at) / RFU WNT11 (11732464_a_at) / Fold change /veh WNT11 (11732464_a_at) / RFU C10orf10 (11716521_a_at) / Fold change /veh C10orf10 (11716521_a_at) / RFU C5orf56 (11738089_at) / Fold change /veh C5orf56 (11738089_at) / RFU CYB561 (11721691_x_at) / Fold change /veh CYB561 (11721691_x_at) / RFU ANKRD19P (11752326_a_at) / Fold change /veh ANKRD19P (11752326_a_at) / RFU OR2T12 /// OR2T33 /// OR2T8 (11738714_s_at) / Fold change /veh OR2T12 /// OR2T33 /// OR2T8 (11738714_s_at) / RFU VCAN (11748164_a_at) / Fold change /veh VCAN (11748164_a_at) / RFU JSRP1 (11732532_at) / Fold change /veh JSRP1 (11732532_at) / RFU KRTAP10-11 (11738290_x_at) / Fold change /veh KRTAP10-11 (11738290_x_at) / RFU MYO3A (11730013_a_at) / Fold change /veh MYO3A (11730013_a_at) / RFU EBF3 (11725865_a_at) / Fold change /veh EBF3 (11725865_a_at) / RFU CAMK2N1 (11719241_x_at) / Fold change /veh CAMK2N1 (11719241_x_at) / RFU C5orf56 (11738088_a_at) / Fold change /veh C5orf56 (11738088_a_at) / RFU OLFML3 (11715873_a_at) / Fold change /veh OLFML3 (11715873_a_at) / RFU LOC100653217 /// NTM (11731650_a_at) / Fold change /veh LOC100653217 /// NTM (11731650_a_at) / RFU MAPK11 (11762145_a_at) / Fold change /veh MAPK11 (11762145_a_at) / RFU FIZ1 (11724087_x_at) / Fold change /veh FIZ1 (11724087_x_at) / RFU OASL (11726364_x_at) / Fold change /veh OASL (11726364_x_at) / RFU SOX15 (11748057_x_at) / Fold change /veh SOX15 (11748057_x_at) / RFU CD79A (11719716_a_at) / Fold change /veh CD79A (11719716_a_at) / RFU HIST1H1D (11736915_at) / Fold change /veh HIST1H1D (11736915_at) / RFU CASKIN2 (11723855_a_at) / Fold change /veh CASKIN2 (11723855_a_at) / RFU LOC730098 (11760151_x_at) / Fold change /veh LOC730098 (11760151_x_at) / RFU OR4N2 (11742367_at) / Fold change /veh OR4N2 (11742367_at) / RFU PRRT2 (11749266_a_at) / Fold change /veh PRRT2 (11749266_a_at) / RFU SNX32 (11753110_a_at) / Fold change /veh SNX32 (11753110_a_at) / RFU CDHR5 (11726645_a_at) / Fold change /veh CDHR5 (11726645_a_at) / RFU RCAN1 (11760418_a_at) / Fold change /veh RCAN1 (11760418_a_at) / RFU FAM167A (11723789_a_at) / Fold change /veh FAM167A (11723789_a_at) / RFU FAM26E (11764081_at) / Fold change /veh FAM26E (11764081_at) / RFU ISYNA1 (11749810_s_at) / Fold change /veh ISYNA1 (11749810_s_at) / RFU ACY1 (11761880_at) / Fold change /veh ACY1 (11761880_at) / RFU 11764098_at / Fold change /veh 11764098_at / RFU SAMD14 (11745864_x_at) / Fold change /veh SAMD14 (11745864_x_at) / RFU NPB (11741838_a_at) / Fold change /veh NPB (11741838_a_at) / RFU TMPRSS6 (11731388_a_at) / Fold change /veh TMPRSS6 (11731388_a_at) / RFU KRTAP10-2 (11738614_at) / Fold change /veh KRTAP10-2 (11738614_at) / RFU ARHGAP8 /// PRR5-ARHGAP8 (11727945_x_at) / Fold change /veh ARHGAP8 /// PRR5-ARHGAP8 (11727945_x_at) / RFU KRTAP5-7 /// NADSYN1 (11734609_at) / Fold change /veh KRTAP5-7 /// NADSYN1 (11734609_at) / RFU RASL12 (11751679_a_at) / Fold change /veh RASL12 (11751679_a_at) / RFU CDKN2B (11736163_a_at) / Fold change /veh CDKN2B (11736163_a_at) / RFU PRF1 (11729649_at) / Fold change /veh PRF1 (11729649_at) / RFU, ZNF638 /// ZNF638-IT1 / Fold change vs veh, ZNF638 /// ZNF638-IT1 / RFU, PANK3 / Fold change vs veh, PANK3 / RFU, SH3YL1 / Fold change vs veh, SH3YL1 / RFU, ZEB2 / Fold change vs veh, ZEB2 / RFU, NRIP1 / Fold change vs veh, NRIP1 / RFU, PTTG1IP / Fold change vs veh, PTTG1IP / RFU, CAPN2 / Fold change vs veh, CAPN2 / RFU, MED14 / Fold change vs veh, MED14 / RFU, SNORA58 / Fold change vs veh, SNORA58 / RFU, C1orf63 / Fold change vs veh, C1orf63 / RFU, LRRFIP1 / Fold change vs veh, LRRFIP1 / RFU, NDUFAF7 / Fold change vs veh, NDUFAF7 / RFU, SLC12A2 / Fold change vs veh, SLC12A2 / RFU, IBTK / Fold change vs veh, IBTK / RFU, ESF1 / Fold change vs veh, ESF1 / Fold change vs veh, TMEM50B / RFU, TAOK1 / Fold change vs veh, TAOK1 / RFU, ACBD3 / Fold change vs veh, ACBD3 / RFU, TMA16 / Fold change vs veh, TMA16 / RFU, RWDD3 / Fold change vs veh, RWDD3 / RFU, BCAT1 / Fold change vs veh, BCAT1 / RFU, EDEM3 / Fold change vs veh, EDEM3 / RFU, TMEM33 / Fold change vs veh, TMEM33 / RFU, WDR75 / Fold change vs veh, WDR75 / RFU, AHCTF1 / Fold change vs veh, AHCTF1 / RFU, TFRC / Fold change vs veh, TFRC / RFU, ZDHHC17 / Fold change vs veh, ZDHHC17 / RFU, NOM1 / Fold change vs veh, NOM1 / RFU, ARL8B / Fold change vs veh, ARL8B / RFU, ZBTB11 / Fold change vs veh, ZBTB11 / RFU, TAMM41 / Fold change vs veh, TAMM41 / RFU, KIAA1704 /// LOC100996395 / Fold change vs veh, KIAA1704 /// LOC100996395 / RFU, ING1 / Fold change vs veh, ING1 / RFU, TRMT61B / Fold change vs veh, TRMT61B / RFU, FUBP3 / Fold change vs veh, FUBP3 / RFU, TP53 / Fold change vs veh, TP53 / RFU, TNKS2 / Fold change vs veh, TNKS2 / RFU, ZFP14 / Fold change vs veh, ZFP14 / RFU, ACTR2 / Fold change vs veh, ACTR2 / RFU, PPP3R1 / Fold change vs veh, PPP3R1 / RFU, PIK3R1 / Fold change vs veh, PIK3R1 / RFU, HNRNPA1 / Fold change vs veh, HNRNPA1 / RFU, RNF170 / Fold change vs veh, RNF170 / RFU, ZNF28 / Fold change vs veh, ZNF28 / RFU, RNGTT / Fold change vs veh, RNGTT / RFU, OGT / Fold change vs veh, OGT / RFU, BRD1 / Fold change vs veh, BRD1 / RFU, MARS / Fold change vs veh, MARS / RFU, ZNF655 / Fold change vs veh, ZNF655 / RFU, FAHD1 / Fold change vs veh, FAHD1 / RFU, BDP1 / Fold change vs veh, BDP1 / RFU, LRRCC1 / Fold change vs veh, LRRCC1 / RFU, ARID1A / Fold change vs veh, ARID1A / RFU, ZNF146 / Fold change vs veh, ZNF146 / RFU, ZNF330 / Fold change vs veh, ZNF330 / RFU, GPN3 / Fold change vs veh, GPN3 / RFU, C9orf123 / Fold change vs veh, C9orf123 / RFU, N4BP2L2 / Fold change vs veh, N4BP2L2 / RFU, ARFIP1 / Fold change vs veh, ARFIP1 / RFU, FAM179B / Fold change vs veh, FAM179B / RFU, BCL10 / Fold change vs veh, BCL10 / RFU, UHRF1BP1L / Fold change vs veh, UHRF1BP1L / RFU, BET1 / Fold change vs veh, BET1 / RFU, CNOT2 / Fold change vs veh, CNOT2 / RFU, ZNF268 / Fold change vs veh, ZNF268 / Fold change vs veh, ZNF507 / RFU, DGCR2 / Fold change vs veh, DGCR2 / RFU, WDSUB1 / Fold change vs veh, WDSUB1 / Fold change vs veh, HSP90B1 /// MIR3652 / RFU, ADSS / Fold change vs veh, ADSS / RFU, GK / Fold change vs veh, GK / RFU, ZNF148 / Fold change vs veh, ZNF148 / RFU, TAF9 / Fold change vs veh, TAF9 / RFU, SLC1A5 / Fold change vs veh, SLC1A5 / RFU, SLMO2 / Fold change vs veh, SLMO2 / RFU, ABCC4 / Fold change vs veh, ABCC4 / RFU, LOC101060439 /// RAP1B / Fold change vs veh, LOC101060439 /// RAP1B / RFU, RFX7 / Fold change vs veh, RFX7 / RFU, GTPBP10 / Fold change vs veh, GTPBP10 / RFU, CNEP1R1 / Fold change vs veh, CNEP1R1 / RFU, BIVM-ERCC5 /// ERCC5 / Fold change vs veh, BIVM-ERCC5 /// ERCC5 / RFU, ILF3 / Fold change vs veh, ILF3 / RFU 11762660_at / Fold change /veh 11762660_at / RFU VCAN (11757783_s_at) / Fold change /veh VCAN (11757783_s_at) / RFU DDX43 (11728927_at) / Fold change /veh DDX43 (11728927_at) / RFU KRT8 (11758188_x_at) / Fold change /veh KRT8 (11758188_x_at) / RFU NKD1 (11759106_at) / Fold change /veh NKD1 (11759106_at) / RFU SRD5A1 (11742802_a_at) / Fold change /veh SRD5A1 (11742802_a_at) / RFU TPSAB1 /// TPSB2 (11721975_s_at) / Fold change /veh TPSAB1 /// TPSB2 (11721975_s_at) / RFU GSTM3 (11746129_a_at) / Fold change /veh GSTM3 (11746129_a_at) / RFU IL23R (11737362_x_at) / Fold change /veh IL23R (11737362_x_at) / RFU TMEM51 (11727254_a_at) / Fold change /veh TMEM51 (11727254_a_at) / RFU PIWIL2 (11732686_x_at) / Fold change /veh PIWIL2 (11732686_x_at) / RFU ORM1 (11744905_x_at) / Fold change /veh ORM1 (11744905_x_at) / RFU CCDC152 (11743942_at) / Fold change /veh CCDC152 (11743942_at) / RFU ECM1 (11717891_a_at) / Fold change /veh ECM1 (11717891_a_at) / RFU IL23R (11748794_a_at) / Fold change /veh IL23R (11748794_a_at) / RFU TNFAIP8L3 (11732012_x_at) / Fold change /veh TNFAIP8L3 (11732012_x_at) / RFU MBOAT4 (11741988_at) / Fold change /veh MBOAT4 (11741988_at) / RFU 11764193_at / Fold change /veh 11764193_at / RFU TMEM53 (11763286_at) / Fold change /veh TMEM53 (11763286_at) / RFU MAGEB2 (11727129_at) / Fold change /veh MAGEB2 (11727129_at) / RFU TMEM200A (11744735_a_at) / Fold change /veh TMEM200A (11744735_a_at) / RFU CCDC152 (11751479_a_at) / Fold change /veh CCDC152 (11751479_a_at) / RFU FAM211A (11726209_a_at) / Fold change /veh FAM211A (11726209_a_at) / RFU RGS16 (11746705_a_at) / Fold change /veh RGS16 (11746705_a_at) / RFU VCAN (11755009_s_at) / Fold change /veh VCAN (11755009_s_at) / RFU RHOB (11743442_s_at) / Fold change /veh RHOB (11743442_s_at) / RFU RGS16 (11720943_a_at) / Fold change /veh RGS16 (11720943_a_at) / RFU RGS16 (11720944_at) / Fold change /veh RGS16 (11720944_at) / RFU, VPS4B / Fold change vs veh, VPS4B / RFU, CREB1 / Fold change vs veh, CREB1 / RFU, DNAJC13 / Fold change vs veh, DNAJC13 / RFU, GNAQ / Fold change vs veh, GNAQ / RFU, CDK5R1 / Fold change vs veh, CDK5R1 / RFU, ZRANB3 / Fold change vs veh, ZRANB3 / RFU, CUL4A / Fold change vs veh, CUL4A / RFU, CCNY / Fold change vs veh, CCNY / RFU, UFL1 / Fold change vs veh, UFL1 / RFU, COG3 / Fold change vs veh, COG3 / RFU, DIAPH2 / Fold change vs veh, DIAPH2 / RFU, SKA2 / Fold change vs veh, SKA2 / RFU, AFF3 / Fold change vs veh, AFF3 / RFU, LMF1 / Fold change vs veh, LMF1 / RFU, IPO11 / Fold change vs veh, IPO11 / RFU, DFFB / Fold change vs veh, DFFB / RFU, FOXP1 / Fold change vs veh, FOXP1 / RFU, CARD8 / Fold change vs veh, CARD8 / RFU, STRN3 / Fold change vs veh, STRN3 / RFU, ADK / Fold change vs veh, ADK / RFU, RASSF2 / Fold change vs veh, RASSF2 / RFU, WIPF1 / Fold change vs veh, WIPF1 / RFU, LARP1B / Fold change vs veh, LARP1B / RFU, RASA1 / Fold change vs veh, RASA1 / RFU, RB1 / Fold change vs veh, RB1 / RFU, PPFIA1 / Fold change vs veh, PPFIA1 / RFU, MAT2A / Fold change vs veh, MAT2A / RFU, CCT5 / Fold change vs veh, CCT5 / RFU, WDR92 / Fold change vs veh, WDR92 / RFU, CUX1 / Fold change vs veh, CUX1 / RFU, TTC7A / Fold change vs veh, TTC7A / RFU, TMEM135 / Fold change vs veh, TMEM135 / RFU, DEPTOR / Fold change vs veh, DEPTOR / RFU, CPM / Fold change vs veh, CPM / RFU, DNAJB6 / Fold change vs veh, DNAJB6 / RFU, CACNA2D3 / Fold change vs veh, CACNA2D3 / RFU, DTX4 / Fold change vs veh, DTX4 / RFU, TFCP2 / Fold change vs veh, TFCP2 / RFU, GMCL1 /// GMCL1P1 / Fold change vs veh, GMCL1 /// GMCL1P1 / RFU, AEBP2 / Fold change vs veh, AEBP2 / RFU, SNHG1 /// SNORD22 /// SNORD25 /// SNORD26 /// SNORD27 /// SNORD28 /// SNORD29 /// SNORD31 / Fold change vs veh, SNHG1 /// SNORD22 /// SNORD25 /// SNORD26 /// SNORD27 /// SNORD28 /// SNORD29 /// SNORD31 / Fold change (Aza/veh), C12orf56 (ProbeSet 11735607_a_at) / Fold change (ACY-1035/veh), C12orf56 (ProbeSet 11735607_a_at) / Fold change (Aza/veh), FGFR1OP (ProbeSet 11751329_s_at) / Fold change (ACY-1035/veh), FGFR1OP (ProbeSet 11751329_s_at) / Fold change (Aza/veh), VPS36 (ProbeSet 11739960_a_at) / Fold change (ACY-1035/veh), VPS36 (ProbeSet 11739960_a_at) / RFU SYPL1 (11715823_x_at) / Fold change /veh SYPL1 (11715823_x_at) / RFU IGFBP7 (11715501_s_at) / Fold change /veh IGFBP7 (11715501_s_at) / RFU REEP3 (11722064_at) / Fold change /veh REEP3 (11722064_at) / RFU IGLL1 (11728026_x_at) / Fold change /veh IGLL1 (11728026_x_at): dose or concentration left out as unconfirmed
Conditions: MV-4-11 cells, 48 hours

Nc1ncn([C@@H]2O[C@H](CO)[C@@H](O)[C@H]2O)c(=O)n1 [azacitidine]
Fold change /veh LOC101060620 /// MAPK8IP1 (11723275_at): 0.98
